Assays:
[1] = molecular target: T1, Glycogen synthase kinase-3 beta (Homo sapiens, UniProt P49841); experiment: Inhibition of human Glycogen synthase kinase-3 beta (GSK3-beta) at 100 uM ATP
[2] = molecular target: T1, Glycogen synthase kinase-3 beta
Description: Inhibitory activity against human glycogen synthase kinase-3beta (GSK3-beta) at 100 uM ATP

[3] = molecular target: Cyclin-dependent kinase 2/cyclin A (Homo sapiens, UniProt P24941); experiment: Inhibition of Cyclin-dependent kinase 2-cyclin A; format: protein-complex assay
[4] = molecular target: T1, Glycogen synthase kinase-3 beta; format: functional, cell-based, Cricetulus griseus, CHO
Description: Stimulation of glycogen synthase in CHO cells expressing human insulin receptor

[5] = molecular target: T1, Glycogen synthase kinase-3 beta; format: functional, cell-based, Cricetulus griseus, CHO-hIR

T1 sequence (P49841 whole entry): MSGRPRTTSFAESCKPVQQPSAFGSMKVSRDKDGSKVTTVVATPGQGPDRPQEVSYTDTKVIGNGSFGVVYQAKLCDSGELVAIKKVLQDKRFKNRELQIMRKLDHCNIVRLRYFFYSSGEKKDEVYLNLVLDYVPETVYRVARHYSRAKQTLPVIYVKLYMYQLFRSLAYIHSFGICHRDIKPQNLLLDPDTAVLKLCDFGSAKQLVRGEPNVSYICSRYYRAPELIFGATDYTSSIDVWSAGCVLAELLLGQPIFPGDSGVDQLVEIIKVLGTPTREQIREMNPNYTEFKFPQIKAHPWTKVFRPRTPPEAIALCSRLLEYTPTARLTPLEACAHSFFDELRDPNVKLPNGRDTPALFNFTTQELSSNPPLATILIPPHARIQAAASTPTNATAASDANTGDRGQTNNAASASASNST

CCN(CC)Cc1c(C(=O)NN)nnn1-c1nonc1N
IC50 [1]: 17 µM

Nc1nonc1-n1nnc(C(=O)NCc2ccncc2)c1CN1CCCCC1
IC50 [2]: 9.3 µM

CN(C)Cc1c(-c2n[nH]c(-c3ccncc3)n2)nnn1-c1nonc1N
IC50 [2]: 6.92 µM

Nc1nonc1-n1nnc(C(=O)NCCc2ccncc2)c1CN1CCCC1
IC50 [2]: 2.1 µM

Nc1nonc1-n1nnc(C(=O)NCCc2ccncc2)c1CN1CCCCC1
IC50 [2]: 1.16 µM
IC50 [3]: 119 µM
EC50 [4]: 19.1 µM
EC50 [5]: 57.5 µM

Nc1nonc1-n1nnc(C(=O)N/N=C/c2ccncc2)c1CN1CCCC1
IC50 [2]: 0.1 µM

CN(CCc1ccncc1)C(=O)c1nnn(-c2nonc2N)c1CN1CCCCC1
IC50 [2]: > 250 µM

CC(C)CNCc1c(C(=O)NCc2ccncc2)nnn1-c1nonc1N
IC50 [2]: > 250 µM

NNC(=O)c1nnn(-c2nonc2N)c1CN1CCCCC1
IC50 [2]: 9.6 µM

CCN(CC)Cc1c(C(=O)N/N=C/c2ccncc2)nnn1-c1nonc1N
IC50 [2]: 0.41 µM

CCN(CC)Cc1c(C(=O)NCCc2ccncc2)nnn1-c1nonc1N
IC50 [2]: 11.7 µM

Nc1nonc1-n1nnc(-c2n[nH]c(-c3ccncc3)n2)c1CN1CCCC1
IC50 [2]: 0.24 µM

Nc1nonc1-n1nnc(C(=O)N/N=C/c2ccncc2)c1CN1CCCCC1
IC50 [2]: 0.1 µM
IC50 [3]: 96 µM
EC50 [4]: 2.85 µM
EC50 [5]: 4.54 µM

Nc1nonc1-n1nnc(-c2nnc(-c3ccncc3)[nH]2)c1CN1CCCCC1
IC50 [2]: 0.28 µM
IC50 [3]: > 250 µM
EC50 [4]: 1.85 µM
EC50 [5]: 11.1 µM

From ChEMBL document CHEMBL1145856, “Synthesis and in vitro characterization of 1-(4-aminofurazan-3-yl)-5-dialkylaminomethyl-1H-[1,2,3]triazole-4-carboxylic acid derivatives. A new class of selective GSK-3 inhibitors” (J Med Chem, 2003)
